Laboratory results taken from ChEMBL document CHEMBL3822390, “Synthesis, characterization and anti-cancer activity of a peptide nucleolipid bioconjugate” (2016).

Tests used:
Type in all cases: functional
[1] = Cytotoxicity against human OVCAR3 cells assessed as cell growth at 7.25 uM after 48 hrs by SRB assay; settings: OVCAR-3, 48 h, read-out: Activity
MDA-MB-435 = test: Cytotoxicity against human MDA-MB-435 cells assessed as cell growth at 7.25 uM after 48 hrs by SRB assay; settings: MDA-MB-435, 48 h, read-out: Activity
[2] = Cytotoxicity against human BT549 cells assessed as cell growth at 7.25 uM after 48 hrs by SRB assay; settings: BT-549, 48 h, read-out: Activity
[3] = Cytotoxicity against human SNB19 cells assessed as cell growth at 7.25 uM after 48 hrs by SRB assay; settings: SNB-19, 48 h, read-out: Activity
[4] = Cytotoxicity against human Hs 578T cells assessed as cell growth at 7.25 uM after 48 hrs by SRB assay; settings: read-out: Activity
[5] = Cytotoxicity against human HCT15 cells assessed as cell growth at 7.25 uM after 48 hrs by SRB assay; settings: HCT-15, 48 h, read-out: Activity
[6] = Cytotoxicity against human UACC257 cells assessed as cell growth at 7.25 uM after 48 hrs by SRB assay; settings: UACC-257, 48 h, read-out: Activity
[7] = Cytotoxicity against human RXF393 cells assessed as cell growth at 7.25 uM after 48 hrs by SRB assay; settings: RXF 393, 48 h, read-out: Activity
[8] = Cytotoxicity against human HL-60(TB) cells assessed as cell growth at 7.25 uM after 48 hrs by SRB assay; settings: HL-60, 48 h, read-out: Activity
SK-MEL-28 [9] = test: Cytotoxicity against human SK-MEL-28 cells assessed as cell growth at 7.25 uM after 48 hrs by SRB assay; settings: SK-MEL-28, 48 h, read-out: Activity
NCI-H226 [10] = test: Cytotoxicity against human NCI-H226 cells assessed as cell growth at 7.25 uM after 48 hrs by SRB assay; settings: NCI-H226, 48 h, read-out: Activity
[11] = Cytotoxicity against human TK10 cells assessed as cell growth at 7.25 uM after 48 hrs by SRB assay; settings: TK-10, 48 h, read-out: Activity
CCRF-CEM = test: Cytotoxicity against human CCRF-CEM cells assessed as cell growth at 10 uM after 48 hrs by SRB assay; settings: read-out: Activity
[12] = Cytotoxicity against human SNB75 cells assessed as cell growth at 10 uM after 48 hrs by SRB assay; settings: SNB-75, 48 h, read-out: Activity
K562 = test: Cytotoxicity against human K562 cells assessed as cell growth at 10 uM after 48 hrs by SRB assay; settings: K562, 48 h, read-out: Activity
SK-MEL-28 [13] = test: Cytotoxicity against human SK-MEL-28 cells assessed as cell growth at 10 uM after 48 hrs by SRB assay; settings: SK-MEL-28, 48 h, read-out: Activity
U-251 = test: Cytotoxicity against human U251 cells assessed as cell growth at 10 uM after 48 hrs by SRB assay; settings: U-251, 48 h, read-out: Activity
[14] = Cytotoxicity against human NCI-ADR-RES cells assessed as cell growth at 10 uM after 48 hrs by SRB assay; settings: read-out: Activity
[15] = Cytotoxicity against human SW620 cells assessed as cell growth at 10 uM after 48 hrs by SRB assay; settings: SW-620, 48 h, read-out: Activity
[16] = Cytotoxicity against human SKOV3 cells assessed as cell growth at 10 uM after 48 hrs by SRB assay; settings: SK-OV-3, 48 h, read-out: Activity
NCI-H522 [17] = test: Cytotoxicity against human NCI-H522 cells assessed as cell mortality at 10 uM after 48 hrs by SRB assay; settings: NCI-H522, 48 h
NCI-H226 [18] = test: Cytotoxicity against human NCI-H226 cells assessed as cell growth at 10 uM after 48 hrs by SRB assay; settings: NCI-H226, 48 h, read-out: Activity
[19] = Cytotoxicity against human PC3 cells assessed as cell growth at 10 uM after 48 hrs by SRB assay; settings: PC-3, 48 h, read-out: Activity
[20] = Cytotoxicity against human NCI-ADR-RES cells assessed as cell growth at 2.13 uM after 48 hrs by SRB assay; settings: read-out: Activity
MDA-MB-231 = test: Cytotoxicity against human MDA-MB-231 cells assessed as cell growth at 2.13 uM after 48 hrs by SRB assay; settings: MDA-MB-231, 48 h, read-out: Activity
Malme-3M = test: Cytotoxicity against human MALME-3M cells assessed as cell growth at 2.13 uM after 48 hrs by SRB assay; settings: read-out: Activity
[21] = Cytotoxicity against human SF539 cells assessed as cell growth at 2.13 uM after 48 hrs by SRB assay; settings: SF-539, 48 h, read-out: Activity
[22] = Cytotoxicity against human SKOV3 cells assessed as cell growth at 2.13 uM after 48 hrs by SRB assay; settings: SK-OV-3, 48 h, read-out: Activity
NCI-H522 [23] = test: Cytotoxicity against human NCI-H522 cells assessed as cell growth at 2.13 uM after 48 hrs by SRB assay; settings: NCI-H522, 48 h, read-out: Activity
KM12 = test: Cytotoxicity against human KM12 cells assessed as cell growth at 2.13 uM after 48 hrs by SRB assay; settings: KM12, 48 h, read-out: Activity
[24] = Cytotoxicity against human HCC2998 cells assessed as cell growth at 2.13 uM after 48 hrs by SRB assay; settings: HCC 2998, 48 h, read-out: Activity
[25] = Cytotoxicity against human SW620 cells assessed as cell growth at 2.13 uM after 48 hrs by SRB assay; settings: SW-620, 48 h, read-out: Activity
[26] = Cytotoxicity against human UACC62 cells assessed as cell growth at 2.13 uM after 48 hrs by SRB assay; settings: UACC-62, 48 h, read-out: Activity
[27] = Cytotoxicity against human TK10 cells assessed as cell growth at 2.13 uM after 48 hrs by SRB assay; settings: TK-10, 48 h, read-out: Activity
HT-29 = test: Cytotoxicity against human HT-29 cells assessed as cell growth at 2.13 uM after 48 hrs by SRB assay; settings: HT-29, 48 h, read-out: Activity
NCI-H226 [28] = test: Cytotoxicity against human NCI-H226 cells assessed as cell mortality at 2.13 uM after 48 hrs by SRB assay; settings: NCI-H226, 48 h
[29] = Cytotoxicity against human Hs 578T cells assessed as cell growth at 2.13 uM after 48 hrs by SRB assay; settings: read-out: Activity
[30] = Cytotoxicity against human UACC257 cells assessed as cell growth at 2.13 uM after 48 hrs by SRB assay; settings: UACC-257, 48 h, read-out: Activity
NCI-H23 = test: Cytotoxicity against human NCI-H23 cells assessed as cell growth at 2.13 uM after 48 hrs by SRB assay; settings: NCI-H23, 48 h, read-out: Activity
NCI-H522 [31] = test: Cytotoxicity against human NCI-H522 cells assessed as cell mortality at 2.13 uM after 48 hrs by SRB assay; settings: NCI-H522, 48 h
SK-MEL-28 [32] = test: Cytotoxicity against human SK-MEL-28 cells assessed as cell growth at 2.13 uM after 48 hrs by SRB assay; settings: SK-MEL-28, 48 h, read-out: Activity

**Q.** What does the source list for `CCCCCCCCCCCCCCCC(=O)NCCCC[C@H](NC(=O)[C@H](C)NC(=O)[C@H](CCCCN)NC(=O)[C@H](C)NC(=O)[C@H](CC(C)C)NC(=O)[C@H](CCCCN)NC(=O)[C@H](C)NC(=O)[C@H](CC(C)C)NC(=O)[C@H](CCCCN)NC(=O)[C@H](CCCCN)NC(=O)[C@H](C)NC(=O)[C@H](CC(C)C)NC(=O)[C@H](CCCCN)NC(=O)[C@H](C)NC(=O)[C@H](CC(C)C)NC(=O)[C@H](CCCCN)NC(=O)[C@@H](N)CC(=O)O)C(N)=O`?
**A.** growth at 7.25 µM [1]: 122%; growth at 7.25 µM (MDA-MB-435): 113%; growth at 7.25 µM [2]: 104%; growth at 7.25 µM [3]: 103%; growth at 7.25 µM [4]: 101%; growth at 7.25 µM [5]: 109%; growth at 7.25 µM [6]: 73.1%; growth at 7.25 µM [7]: 111%; growth at 7.25 µM [8]: 93.1%; growth at 7.25 µM (SK-MEL-28 [9]): 106%; growth at 7.25 µM (NCI-H226 [10]): 99.5%; growth at 7.25 µM [11]: 92.1%

**Q.** What does the source list for `CC(C)C[C@H](NC(=O)[C@H](CCCCN)NC(=O)[C@H](C)NC(=O)[C@H](CC(C)C)NC(=O)[C@H](CCCCN)NC(=O)[C@H](CCCCN)NC(=O)[C@H](C)NC(=O)[C@H](CC(C)C)NC(=O)[C@H](CCCCN)NC(=O)[C@H](C)NC(=O)[C@H](CC(C)C)NC(=O)[C@H](CCCCN)NC(=O)[C@@H](N)CC(=O)O)C(=O)N[C@@H](C)C(=O)N[C@@H](CCCCN)C(=O)N[C@@H](C)C(=O)N[C@@H](CCCCN)C(N)=O`?
**A.** growth at 10 µM (CCRF-CEM): 108%; growth at 10 µM [12]: 98.8%; growth at 10 µM (K562): 99.8%; growth at 10 µM (SK-MEL-28 [13]): 104%; growth at 10 µM (U-251): 94.6%; growth at 10 µM [14]: 105%; growth at 10 µM [15]: 106%; growth at 10 µM [16]: 98.7%; mortality at 10 µM (NCI-H522 [17]): 14%; growth at 10 µM (NCI-H226 [18]): 99.1%; growth at 10 µM [19]: 94.7%

**Q.** What does the source list for `CCCCCCCCCCCCCCCCNCCO[C@H]1C[C@H](n2cc(C)c(=O)[nH]c2=O)O[C@@H]1C(=O)NCCCC[C@H](NC(=O)[C@H](C)NC(=O)[C@H](CCCCN)NC(=O)[C@H](C)NC(=O)[C@H](CC(C)C)NC(=O)[C@H](CCCCN)NC(=O)[C@H](C)NC(=O)[C@H](CC(C)C)NC(=O)[C@H](CCCCN)NC(=O)[C@H](CCCCN)NC(=O)[C@H](C)NC(=O)[C@H](CC(C)C)NC(=O)[C@H](CCCCN)NC(=O)[C@H](C)NC(=O)[C@H](CC(C)C)NC(=O)[C@H](CCCCN)NC(=O)[C@@H](N)CC(=O)O)C(N)=O`?
**A.** growth at 2.13 µM [20]: 109%; growth at 2.13 µM (MDA-MB-231): 101%; growth at 2.13 µM (Malme-3M): 104%; growth at 2.13 µM [21]: 98.8%; growth at 2.13 µM [22]: 98.4%; growth at 2.13 µM (NCI-H522 [23]): 88.8%; growth at 2.13 µM (KM12): 103%; growth at 2.13 µM [24]: 104%; growth at 2.13 µM [25]: 108%; growth at 2.13 µM [26]: 104%; growth at 2.13 µM [27]: 95.9%; growth at 2.13 µM (HT-29): 102%; mortality at 2.13 µM (NCI-H226 [28]): 4%; growth at 2.13 µM [29]: 101%; growth at 2.13 µM [30]: 75.8%; growth at 2.13 µM (NCI-H23): 106%; mortality at 2.13 µM (NCI-H522 [31]): 11%; growth at 2.13 µM (SK-MEL-28 [32]): 102%
